Consider 3 compounds from patent US10568898B2, “Lipophilic nanoparticles for drug delivery” (priority 2013, dated 2020).

For one data set, the system named is Ramos cells. In kind it is cell-based. The conditions noted are these: FIG. 7, free doxorubicin at 100 nM-1 μM, HDL-Andrographolide NP at 5 nM.
Data set [1] has as its system LNCaP adenocarcinoma cell lines. As to the kind of experiment: Fluorescence microscopy of doxorubicin uptake. Type of data set: cell-based, human. As to conditions: 18 hours after treatment. The protocol:
To further confirm delivery of doxorubicin to cancer cells with HDL-NP, LNCaP adenocarcinoma cell lines were assessed by fluorescence microscopy after treatment with free doxorubicin, Dox-HDL-NP, and HDL-NP.

In the next data set the test system is H9c2 cells. As to conditions: 48- and 72-hour treatment, same concentrations as lymphoma lines.
For data set [2] the following is noted: clinical use; cited from earlier work.

Experimental for H9c2 cells: For adherent lines (LNCaP, MDA-MB-231, and H9c2), cells were deposited onto 96-well plates at a concentration of 5×10^4 cells/mL, 24 hours prior to treatment. Cells were then treated, incubated, and assessed as described above for the suspension cells.
The effects of Dox-HDL-NP and free doxorubicin in H9c2 cardiomyoblasts, a rat-derived cardiomyocyte cell line that has been used extensively in mechanistic studies of doxorubicin toxicity in heart cells, have been studied.
Experimental for Ramos cells: For suspension cell lines (Ramos, Jurkat, and SUDHL4), confluent cells were deposited onto 96-well plates at 1×10^5 cells/mL, then treated with either: 1-10 nM HDL NP, 1-10 nM HDL-drug NP, 10 nM-1 μM free drug, or 10 nM human HDL. All solutions were in 1% PBS, in a total volume of 100 μL. Cells were incubated for 48 hours with the treatment, then assessed for viability using a 3-(4,5-dimethylthiazol-2-yl)-5-(3-carboxymethoxyphenyl)-2-(4-sulfo-phenyl)-2H-tetrazolium (MTS) cell proliferation assay. 20 μL of the MTS solution (G1112; Promega) was added to each well; absorbance at 490 nm was measured immediately and after 90 min. Survival for a sample was presented as absorbance for that sample at 90 min, compared to absorbance for the non-treated control at 90 min. Since metabolically active cells reduce MTS, lower absorbance indicates cell death.
Cytotoxicity of the HDL-Doxorobucin NPs was assessed by incubating with lymphoma cells in culture for 48-72 hours, and measuring cell viability by a 3-(4,5-dimethylthiazol-2-yl)-5-(3-carboxymethoxyphenyl)-2-(4-sulfophenyl)-2H-tetrazolium (MTS) assay. […]
For suspension cell lines (Ramos and SUDHL4), 90 μl confluent cells were deposited into 96-well plates at 1×10^5 cells/mL, then treated with 10 μl of either: 1-10 nM HDL NP, 1-10 nM HDL-drug NP, 10 nM-1 μM free drug, 10 nM human HDL, or PBS. […] Cells were incubated for 48 hours with the treatment, and then assessed for viability using a 3-(4,5-dimethylthiazol-2-yl)-5-(3-carboxymethoxyphenyl)-2-(4-sulfo-phenyl)-2H-tetrazolium (MTS) cell proliferation assay. Twenty μL of the MTS solution (G1112; Promega) was added to each well; absorbance at 490 nm was measured immediately and after 90 minutes. […] Cell viability was calculated according to the following formula: Cell viability=(OD490, 90 min(sample)−OD490, 90 min(0% survival control))/(OD490, 90 min(100% survival control)−OD490, 90 min(0% survival control))×100%
Cytotoxicity of the Dox-HDL-NPs was assessed by incubating Dox-HDL-NP, HDL-NP, or free doxorubicin at varying doses with different lymphoma cell lines. […]

In the case of `C=C1CC[C@@H]2[C@](C)(CO)[C@H](O)CC[C@@]2(C)[C@@H]1C/C=C1/C(=O)OC[C@H]1O` [Andrographolide], the killing effect entry in the data set on Ramos cells is “slight protective effect on cells”.
In the case of `CC[C@]1(O)C[C@H]2CN(CCc3c([nH]c4ccccc34)[C@@](C(=O)OC)(c3cc4c(cc3OC)N(C=O)[C@H]3[C@@](O)(C(=O)OC)[C@H](OC(C)=O)[C@]5(CC)C=CCN6CC[C@]43[C@@H]65)C2)C1` [Vincristine], the killing effect entry in the data set with Ramos cells was “kills with comparable efficiency to the bare HDL NP”.
Take `COc1cccc2c1C(=O)c1c(O)c3c(c(O)c1C2=O)C[C@@](O)(C(=O)CO)C[C@@H]3O[C@H]1C[C@H](N)[C@H](O)[C@H](C)O1` [doxorubicin]: in data set [1], the “doxorubicin fluorescence in cells” value is reported as “fluorescence was clearly seen”. Moreover, the “cell viability in cardiomyoblasts” value with H9c2 cells was “significant reduction in viability”. Further, in the data set with Ramos cells, the killing effect result is “substantial killing effect”. In addition, in data set [2], the “cumulative dose above which cardiotoxicity typically occurs” value is “exceeds 450 mg/m^2 of body surface area”.
